Laboratory results as given in patent US12275731B2, “Azaindole inhibitors of wild-type and mutant forms of LRRK2” (DANA-FARBER CANCER INSTITUTE, INC., priority 2018, dated 2025).

Assays:
Assay in all cases: KinomeScan profiling
Assay type in all cases: binding
MST4 = MST4 (Homo sapiens, UniProt Q9P289); conditions: MST4, 1 μM; read-out: % control
Method in brief: (§1)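 Test agents were profiled at a single concentration of 1 μM (DMSO vehicle) on a near-complete set of 468 kinases. Signal is reported relative to vehicle (100%) and a fully displacing control (0%).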

PAK4 = PAK4 (Homo sapiens, UniProt O96013); conditions: PAK4, 1 μM; read-out: % control
Chain of PAK4 (O96013 whole entry): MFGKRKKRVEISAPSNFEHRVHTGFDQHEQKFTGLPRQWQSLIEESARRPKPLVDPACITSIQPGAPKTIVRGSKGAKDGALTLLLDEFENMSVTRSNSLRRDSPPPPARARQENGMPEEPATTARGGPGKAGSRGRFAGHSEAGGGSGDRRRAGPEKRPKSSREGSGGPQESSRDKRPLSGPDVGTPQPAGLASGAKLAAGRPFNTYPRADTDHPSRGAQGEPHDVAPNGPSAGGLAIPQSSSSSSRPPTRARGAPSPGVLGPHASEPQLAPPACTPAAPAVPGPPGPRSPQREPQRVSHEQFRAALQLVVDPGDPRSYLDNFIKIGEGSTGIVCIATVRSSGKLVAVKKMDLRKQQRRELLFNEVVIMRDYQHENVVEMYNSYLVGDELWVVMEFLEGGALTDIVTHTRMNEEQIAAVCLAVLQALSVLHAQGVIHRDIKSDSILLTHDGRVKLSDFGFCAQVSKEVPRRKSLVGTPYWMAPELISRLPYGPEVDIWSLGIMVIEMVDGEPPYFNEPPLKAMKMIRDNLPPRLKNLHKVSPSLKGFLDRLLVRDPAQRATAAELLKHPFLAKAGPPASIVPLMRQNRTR
Method in brief: as §1

ERK8 = biological target: T1, ERK8 (Homo sapiens, UniProt Q8TD08); conditions: ERK8, 1 μM; read-out: % control
T1 sequence (Q8TD08 1-544): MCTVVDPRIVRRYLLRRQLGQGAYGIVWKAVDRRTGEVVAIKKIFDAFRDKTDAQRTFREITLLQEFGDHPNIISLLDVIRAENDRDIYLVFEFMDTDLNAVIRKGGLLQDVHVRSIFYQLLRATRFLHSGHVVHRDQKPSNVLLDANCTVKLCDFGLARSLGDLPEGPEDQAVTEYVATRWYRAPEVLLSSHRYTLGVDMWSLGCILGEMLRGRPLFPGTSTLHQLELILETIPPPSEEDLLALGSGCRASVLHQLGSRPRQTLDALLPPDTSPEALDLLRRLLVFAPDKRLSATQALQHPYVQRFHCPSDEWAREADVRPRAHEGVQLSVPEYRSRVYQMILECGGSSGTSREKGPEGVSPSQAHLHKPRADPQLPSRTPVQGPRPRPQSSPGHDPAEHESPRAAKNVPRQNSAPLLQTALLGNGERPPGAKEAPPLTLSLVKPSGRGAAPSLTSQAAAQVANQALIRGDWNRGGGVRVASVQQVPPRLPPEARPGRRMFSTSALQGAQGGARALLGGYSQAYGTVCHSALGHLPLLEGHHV
Method in brief: as §1

MLK3 = MLK3 (Homo sapiens, UniProt Q16584); conditions: MLK3, 1 μM; read-out: % control
Chain of MLK3 (Q16584 whole entry): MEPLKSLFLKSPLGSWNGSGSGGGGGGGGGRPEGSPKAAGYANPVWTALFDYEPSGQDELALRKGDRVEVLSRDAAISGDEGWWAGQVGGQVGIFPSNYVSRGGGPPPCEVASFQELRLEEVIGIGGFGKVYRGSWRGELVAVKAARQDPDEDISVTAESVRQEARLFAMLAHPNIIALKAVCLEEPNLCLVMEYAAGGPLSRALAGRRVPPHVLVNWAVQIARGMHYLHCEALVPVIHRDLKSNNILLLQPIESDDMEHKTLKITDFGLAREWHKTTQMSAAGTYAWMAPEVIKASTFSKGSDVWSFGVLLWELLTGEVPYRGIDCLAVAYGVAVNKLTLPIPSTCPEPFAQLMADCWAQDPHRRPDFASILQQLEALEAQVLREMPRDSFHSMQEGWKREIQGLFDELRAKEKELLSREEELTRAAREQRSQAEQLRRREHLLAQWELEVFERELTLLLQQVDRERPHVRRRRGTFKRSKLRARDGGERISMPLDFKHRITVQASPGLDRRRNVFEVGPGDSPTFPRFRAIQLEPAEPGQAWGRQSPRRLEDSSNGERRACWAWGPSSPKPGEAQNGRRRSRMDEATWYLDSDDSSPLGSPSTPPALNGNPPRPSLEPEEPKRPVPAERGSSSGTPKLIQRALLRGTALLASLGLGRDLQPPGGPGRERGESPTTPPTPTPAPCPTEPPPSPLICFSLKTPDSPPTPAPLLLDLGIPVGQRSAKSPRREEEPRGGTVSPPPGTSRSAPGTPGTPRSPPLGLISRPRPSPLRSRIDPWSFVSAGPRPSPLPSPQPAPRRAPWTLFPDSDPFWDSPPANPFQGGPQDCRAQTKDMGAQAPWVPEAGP
Method in brief: as §1

[1] = biological target: EGFR(L747-S752del, P753S) (Homo sapiens, UniProt P00533, DEL747-752/P753S); conditions: read-out: % control
Chain of EGFR(L747-S752del, P753S) (P00533 with tags, fused parts or gaps DEL747-752/P753S): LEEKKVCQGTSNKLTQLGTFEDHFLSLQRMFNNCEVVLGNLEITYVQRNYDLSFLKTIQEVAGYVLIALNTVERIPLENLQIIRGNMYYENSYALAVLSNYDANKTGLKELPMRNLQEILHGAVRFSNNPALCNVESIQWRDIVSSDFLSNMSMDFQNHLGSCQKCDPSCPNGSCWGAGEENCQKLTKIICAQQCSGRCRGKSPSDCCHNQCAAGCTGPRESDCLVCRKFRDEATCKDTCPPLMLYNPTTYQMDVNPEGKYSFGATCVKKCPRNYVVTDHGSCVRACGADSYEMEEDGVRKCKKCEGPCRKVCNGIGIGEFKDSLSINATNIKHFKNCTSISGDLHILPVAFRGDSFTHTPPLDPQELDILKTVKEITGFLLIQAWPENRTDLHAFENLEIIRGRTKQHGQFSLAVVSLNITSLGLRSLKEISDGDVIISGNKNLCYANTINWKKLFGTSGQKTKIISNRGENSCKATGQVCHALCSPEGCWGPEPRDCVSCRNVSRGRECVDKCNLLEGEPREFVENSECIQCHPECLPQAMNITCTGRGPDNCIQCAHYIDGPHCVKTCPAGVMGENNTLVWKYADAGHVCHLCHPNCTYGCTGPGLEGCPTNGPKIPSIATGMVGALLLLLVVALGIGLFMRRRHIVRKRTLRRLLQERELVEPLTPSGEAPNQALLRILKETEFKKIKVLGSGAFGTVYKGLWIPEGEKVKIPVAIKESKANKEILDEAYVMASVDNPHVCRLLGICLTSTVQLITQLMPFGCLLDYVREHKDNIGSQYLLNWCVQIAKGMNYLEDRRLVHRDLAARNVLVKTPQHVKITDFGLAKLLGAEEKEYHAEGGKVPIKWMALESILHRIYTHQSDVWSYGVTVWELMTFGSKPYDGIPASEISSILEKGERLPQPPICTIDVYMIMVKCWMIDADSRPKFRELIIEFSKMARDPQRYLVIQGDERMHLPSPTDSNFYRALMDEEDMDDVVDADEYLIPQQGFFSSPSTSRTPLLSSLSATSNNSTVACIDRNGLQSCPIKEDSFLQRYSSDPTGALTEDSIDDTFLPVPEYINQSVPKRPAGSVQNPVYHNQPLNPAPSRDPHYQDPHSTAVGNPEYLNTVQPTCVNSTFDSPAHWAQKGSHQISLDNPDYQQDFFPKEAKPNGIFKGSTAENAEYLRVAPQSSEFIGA
Method in brief: as §1

FLT3(R834Q) = biological target: T2, FLT3(R834Q) (Homo sapiens, UniProt P36888, R834Q); conditions: read-out: % control
T2 sequence (P36888 27-993 R834Q): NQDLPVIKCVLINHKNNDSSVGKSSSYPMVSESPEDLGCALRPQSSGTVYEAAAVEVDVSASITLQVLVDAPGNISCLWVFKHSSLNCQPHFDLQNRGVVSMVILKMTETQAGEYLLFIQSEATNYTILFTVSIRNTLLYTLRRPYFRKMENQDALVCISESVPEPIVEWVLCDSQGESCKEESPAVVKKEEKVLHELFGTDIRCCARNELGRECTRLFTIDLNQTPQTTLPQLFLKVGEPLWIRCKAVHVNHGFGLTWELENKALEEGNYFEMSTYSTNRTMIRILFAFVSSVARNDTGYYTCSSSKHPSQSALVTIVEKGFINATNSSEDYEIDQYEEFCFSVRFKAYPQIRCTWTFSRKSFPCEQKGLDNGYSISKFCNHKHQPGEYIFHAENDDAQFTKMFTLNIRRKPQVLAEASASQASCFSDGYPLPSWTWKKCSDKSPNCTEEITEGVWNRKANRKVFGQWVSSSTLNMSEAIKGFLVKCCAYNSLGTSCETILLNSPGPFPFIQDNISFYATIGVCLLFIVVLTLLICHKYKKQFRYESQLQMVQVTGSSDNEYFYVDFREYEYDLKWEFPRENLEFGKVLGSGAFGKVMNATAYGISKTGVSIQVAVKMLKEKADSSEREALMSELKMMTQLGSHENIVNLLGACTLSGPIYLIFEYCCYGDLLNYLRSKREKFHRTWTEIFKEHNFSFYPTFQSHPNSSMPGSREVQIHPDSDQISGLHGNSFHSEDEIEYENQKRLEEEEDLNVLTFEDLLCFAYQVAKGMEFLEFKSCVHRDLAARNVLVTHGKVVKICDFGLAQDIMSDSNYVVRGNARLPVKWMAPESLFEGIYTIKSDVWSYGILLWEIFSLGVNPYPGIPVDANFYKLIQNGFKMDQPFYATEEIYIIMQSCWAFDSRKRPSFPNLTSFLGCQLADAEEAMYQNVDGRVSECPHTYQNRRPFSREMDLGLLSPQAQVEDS
Method in brief: as §1

HIPK3 = HIPK3 (Homo sapiens, UniProt Q9H422); conditions: HIPK3, 1 μM; read-out: % control
Chain of HIPK3 (Q9H422 whole entry): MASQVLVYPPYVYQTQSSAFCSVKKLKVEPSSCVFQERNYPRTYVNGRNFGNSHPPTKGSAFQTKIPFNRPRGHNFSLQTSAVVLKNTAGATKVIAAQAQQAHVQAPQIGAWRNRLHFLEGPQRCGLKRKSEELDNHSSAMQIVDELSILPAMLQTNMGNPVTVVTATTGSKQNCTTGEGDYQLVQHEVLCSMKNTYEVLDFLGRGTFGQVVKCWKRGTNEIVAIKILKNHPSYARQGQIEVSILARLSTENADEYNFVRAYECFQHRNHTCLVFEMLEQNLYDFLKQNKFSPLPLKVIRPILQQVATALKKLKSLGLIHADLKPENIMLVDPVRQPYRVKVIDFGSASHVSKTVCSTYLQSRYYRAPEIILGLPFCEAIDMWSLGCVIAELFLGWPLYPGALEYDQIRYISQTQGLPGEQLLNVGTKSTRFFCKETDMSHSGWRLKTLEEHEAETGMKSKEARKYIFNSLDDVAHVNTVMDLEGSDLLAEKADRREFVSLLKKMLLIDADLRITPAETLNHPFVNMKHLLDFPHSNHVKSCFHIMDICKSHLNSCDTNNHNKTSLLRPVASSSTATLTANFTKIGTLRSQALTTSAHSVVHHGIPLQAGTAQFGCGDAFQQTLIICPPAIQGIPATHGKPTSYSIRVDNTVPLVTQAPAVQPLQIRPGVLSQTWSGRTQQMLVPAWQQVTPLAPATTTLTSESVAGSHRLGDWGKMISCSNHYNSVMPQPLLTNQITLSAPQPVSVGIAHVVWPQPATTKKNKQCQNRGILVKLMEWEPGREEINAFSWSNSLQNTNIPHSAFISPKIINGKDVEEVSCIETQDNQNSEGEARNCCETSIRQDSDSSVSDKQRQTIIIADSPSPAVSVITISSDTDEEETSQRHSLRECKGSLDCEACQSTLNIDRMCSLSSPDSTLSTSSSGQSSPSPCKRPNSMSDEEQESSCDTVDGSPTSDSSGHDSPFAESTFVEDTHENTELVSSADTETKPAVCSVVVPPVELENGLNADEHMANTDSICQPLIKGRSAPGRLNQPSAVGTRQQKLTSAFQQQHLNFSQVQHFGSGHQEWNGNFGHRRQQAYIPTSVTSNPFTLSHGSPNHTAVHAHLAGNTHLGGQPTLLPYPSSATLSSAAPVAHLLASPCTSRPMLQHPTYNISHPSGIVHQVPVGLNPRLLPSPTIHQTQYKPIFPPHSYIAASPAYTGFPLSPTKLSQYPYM
Method in brief: as §1

CDKL2 = biological target: T3, CDKL2 (Homo sapiens, UniProt Q92772); conditions: CDKL2, 1 μM; read-out: % control
T3 sequence (Q92772 1-493): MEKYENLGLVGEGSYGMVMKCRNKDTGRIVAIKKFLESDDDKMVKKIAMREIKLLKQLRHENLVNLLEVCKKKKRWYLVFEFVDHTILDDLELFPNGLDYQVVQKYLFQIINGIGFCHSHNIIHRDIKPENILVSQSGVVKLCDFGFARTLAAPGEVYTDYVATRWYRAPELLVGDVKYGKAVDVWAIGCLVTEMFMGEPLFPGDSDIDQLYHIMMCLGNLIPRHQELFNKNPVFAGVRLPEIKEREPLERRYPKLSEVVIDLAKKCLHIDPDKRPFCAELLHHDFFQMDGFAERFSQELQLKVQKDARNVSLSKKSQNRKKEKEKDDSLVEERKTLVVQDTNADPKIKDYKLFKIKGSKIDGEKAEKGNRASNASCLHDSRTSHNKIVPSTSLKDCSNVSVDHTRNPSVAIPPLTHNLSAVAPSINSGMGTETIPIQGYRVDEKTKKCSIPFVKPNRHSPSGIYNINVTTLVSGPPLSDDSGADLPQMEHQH
Method in brief: as §1

EIF2AK1 = EIF2AK1 (Homo sapiens, UniProt Q9BQI3); conditions: EIF2AK1, 1 μM; read-out: % control
Chain of EIF2AK1 (Q9BQI3 whole entry): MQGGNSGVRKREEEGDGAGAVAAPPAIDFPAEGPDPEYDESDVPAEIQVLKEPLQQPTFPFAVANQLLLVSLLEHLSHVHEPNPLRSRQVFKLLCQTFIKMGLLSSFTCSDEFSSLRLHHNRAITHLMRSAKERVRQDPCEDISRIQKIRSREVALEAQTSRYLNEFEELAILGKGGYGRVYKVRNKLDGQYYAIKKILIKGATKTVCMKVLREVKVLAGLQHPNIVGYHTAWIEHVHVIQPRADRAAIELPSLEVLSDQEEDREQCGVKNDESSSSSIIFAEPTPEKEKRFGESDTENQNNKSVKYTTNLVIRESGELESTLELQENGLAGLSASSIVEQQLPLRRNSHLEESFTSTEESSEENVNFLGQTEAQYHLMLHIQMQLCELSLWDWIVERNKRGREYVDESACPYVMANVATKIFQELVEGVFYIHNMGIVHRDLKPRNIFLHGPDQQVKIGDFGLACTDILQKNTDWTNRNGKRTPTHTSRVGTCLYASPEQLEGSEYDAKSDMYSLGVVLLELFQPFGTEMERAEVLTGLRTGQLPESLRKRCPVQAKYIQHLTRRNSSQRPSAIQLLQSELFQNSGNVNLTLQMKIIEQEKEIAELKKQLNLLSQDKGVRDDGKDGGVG
Method in brief: as §1

MEK2 = MEK2 (Homo sapiens, UniProt P36507); conditions: MEK2, 1 μM; read-out: % control
Method in brief: as §1

Chain of MST4 (Q9P289 whole entry): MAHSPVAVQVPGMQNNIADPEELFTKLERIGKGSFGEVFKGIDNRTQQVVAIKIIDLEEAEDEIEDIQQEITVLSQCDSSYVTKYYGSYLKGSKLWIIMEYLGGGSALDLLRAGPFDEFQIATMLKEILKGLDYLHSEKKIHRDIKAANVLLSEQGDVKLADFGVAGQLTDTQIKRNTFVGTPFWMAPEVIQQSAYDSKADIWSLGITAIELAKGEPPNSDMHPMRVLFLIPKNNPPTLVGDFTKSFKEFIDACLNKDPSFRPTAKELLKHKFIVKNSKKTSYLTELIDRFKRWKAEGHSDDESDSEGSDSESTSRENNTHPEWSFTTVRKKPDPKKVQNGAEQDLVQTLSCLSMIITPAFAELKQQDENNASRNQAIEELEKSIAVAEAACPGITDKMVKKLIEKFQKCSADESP

Row | Structure (SMILES) | remaining binding at 1 µM (MST4) [%] | remaining binding at 1 µM (PAK4) [%] | remaining binding at 1 µM (ERK8) [%] | remaining binding at 1 µM (MLK3) [%] | remaining binding at 1 µM [1] [%] | remaining binding at 1 µM (FLT3(R834Q)) [%] | remaining binding at 1 µM (HIPK3) [%] | remaining binding at 1 µM (CDKL2) [%] | remaining binding at 1 µM (EIF2AK1) [%] | remaining binding at 1 µM (MEK2) [%]
1 | CNc1c(-c2cnn([C@H]3CCN(C(C)=O)C[C@@H]3F)c2)cnc2[nH]cc(Cl)c12 [Compound 77, 1-((3S,4S)-4-(4-(3-chloro-4-(methylamino)-1H-pyrrolo[2,3-b]pyridin-5-yl)-1H-pyrazol-1-yl)-3-fluoropiperidin-1-yl)ethan-1-one] | 67 | 65 | 92 | 93 | 92 | 45 | 85 | 95 | 100 | 31
2 | O=C(c1ccc(-c2cnc3[nH]cc(Cl)c3c2NC2CCCC2)cc1)N1CCC(N2CCOCC2)CC1 [Compound 101, (4-(3-chloro-4-(cyclopentylamino)-1H-pyrrolo[2,3-b]pyridin-5-yl)phenyl)(4-morpholinopiperidin-1-yl)methanone] | 100 | 100 | 91 | 100 | 100 | 75 | 100 | 100 | 100 | 87
3 | CNc1c(-c2ccc(C(=O)N3CCC(N4CCOCC4)CC3)cc2)cnc2[nH]cc(Cl)c12 [Compound 96, (4-(3-chloro-4-(methylamino)-1H-pyrrolo[2,3-b]pyridin-5-yl)phenyl)(4-morpholinopiperidin-1-yl)methanone] | 99 | 31 | 100 | 99 | 77 | 52 | 79 | 97 | 100 | 19
